Laboratory results: paper PMC12844998, “Bridging the Knowledge Gap in Harmaline’s Pharmacological Properties: A Focus on Thermodynamics and Kinetics” (Pharmaceutics, 2025)
Values after ≈ are worked out from the molar mass of the structure shown. “Also recorded” adds a separate entry of the source. Like-named read-outs stand apart in the source and are kept apart here.

Key:
[1] = Equilibrium solubility, shake-flask method; assay type: physicochemical; conditions: for solubility at 24 h: Hex, organic solvent or mixture, thermodynamic from solid, value given as S2×10^5, read-out: solubility S2∙105
Experimental: The equilibrium solubility of HML was measured by the shake-flask method over a wide temperature range of 293.15–313.15 K. Briefly, glass vials containing the respective solvent were charged with an excess of the drug. The vials were shaken at a predetermined temperature for 24 h—a duration previously established as sufficient to reach equilibrium between the solid and liquid phases. Following shaking, samples were equilibrated for ~5 h to prevent supersaturation and then centrifuged (10,000 rpm, 10 min; Biofuge pico, Thermo Electron LED GmbH, Osterode am Harz, Germany) at constant temperature. Concentrations were determined spectrophotometrically at 373 nm using a Cary-50 instrument (Varian, Palo Alto, CA, USA; software version 3.00 (339)) based on calibration curves. Data are presented as the mean ± standard deviation (or standard error) of at least three independent replicates. The error bars represent the standard deviation (SD), which ranged from 2% to 4% of the mean.

[2] = Kinetics of distribution in OctOH/pH 7.4 and IPM/pH 7.4 (1-5 h); assay type: physicochemical
Experimental: Distribution coefficients were measured at 1, 2, 3, 4, and 5 h in OctOH/pH 7.4 and IPM/pH 7.4 at 310.15 K to assess the kinetics of HML distribution.

[3] = Permeability in Franz diffusion cell, regenerated cellulose membrane; assay type: in vitro ADME; conditions: RC membrane, pH 7.4, 310.15 K
Experimental: (§1) Permeability coefficients were measured in a vertical type Franz diffusion cell (PermeGear, Inc., Hellertown, PA, USA) maintained at 37 °C, with an effective diffusion area of 0.785 cm^2. The volumes of the donor (lower) and the acceptor (upper) compartments were 7 mL and 2 mL, respectively. Three artificial membranes were used in the study: Regenerated cellulose (RC): Standard Grade RC Dialysis Membrane with a molecular weight cut-off (MWCO) of 12–14 kDa and a flat width of 45 mm; PermeaPad barrier (PP): A commercially available barrier (PHABIOC, Fritz-Souchon-Str. 27, 32339 Espelkamp, Germany; www.innome.de), originally proposed by di Cagno et al.; Polydimethylsiloxane-polycarbonate membrane (PDS): A “Carbosil” membrane composed of 55% polydimethylsiloxane and 45% polycarbonate (PENTAMED, Moscow, Russia; https://medpolymer.ru/).
(§2) A solution of HML in pH 7.4 (7 mL) was placed into the donor chamber of a Franz cell. The acceptor compartment was filled with pure buffer pH 7.4 (1 mL). Over a period of 5 h, 0.5 mL samples were withdrawn from the acceptor compartment at 30 min intervals and replaced with an equal volume of fresh pH 7.4 buffer. The sample concentrations were determined by UV-Vis spectroscopy (Cary-50, Varian, Palo Alto, CA, USA; Software Version 3.00 (339)) or by HPLC (for experiments involving the polydimethylsiloxane-polycarbonate membrane). The cumulative amount of drug permeated through the membrane was plotted as a function of time. The flux was determined from the slope of the linear portion of each curve. The permeability coefficient was calculated using the following equation:(4) Papp=J/C0 where J is the flux, and C0 is the concentration of HML in the donor solution. A reverse dialysis setup was employed, where the lower chamber served as the donor compartment and was filled with the drug solution. Sink conditions were maintained in all experiments, meaning the drug concentration in the acceptor compartment never exceeded 10% of its concentration in the donor compartment at any time according the recommendations proposed in [18].

[4] = Permeability in Franz diffusion cell, polydimethylsiloxane-polycarbonate membrane; assay type: in vitro ADME; conditions: pH 7.4, 310.15 K
Experimental: as §1, §2
Samples from the acceptor compartment after permeation through the PDS membrane were analyzed by HPLC using a Shimadzu Prominence LC-20 AD system(Shimadzu Corporation, Kyoto, Japan) equipped with a PDA detector and a Luna® C-18 column (150 × 4.6 mm i.d., 5 μm particle size, 100 Å pore size). The column temperature was maintained at 40 °C. The mobile phase consisted of acetonitrile and water (containing 0.1% trifluoroacetic acid) in a 20:80 (v/v) ratio. An isocratic elution was performed at a flow rate of 1.0 mL·min^−1. The injection volume was 20 μL. The analytes were detected by UV at 373 nm, with a retention time of approximately 4.5 min. […]

[5] = Permeability in Franz diffusion cell, PermeaPad barrier; assay type: in vitro ADME
Experimental: as §1, §2

MDCK cells = assay: Literature permeability across MDCK cells; assay type: in vitro ADME; conditions: literature MDCK (ref 12) vs PP Papp
[6] = Dissolution thermodynamics from van't Hoff plots of solubility; assay type: physicochemical
From the text: The calculation of the thermodynamic parameters for the solubility and distribution processes was based on component concentrations expressed in terms of mole fractions. The standard calculation procedure and the respective equations are presented in the Supplementary Materials (Section S4).

[7] = pH 7.4, comparison with literature ref 19

Compound: COc1ccc2c3c([nH]c2c1)C(C)=NCC3 [HML, Harmaline]
- solubility at pH 2.0 relative to pH 7.4 (higher) ([1]; 310.15 K): 2.2 fold
- solubility at 24 h ([1]; 293.15 K): 59.2 ± 1.3 µM (≈ 12.7 µg/mL)
- solubility at 24 h ([1]; 295.15 K): 65 ± 1.1 µM (≈ 13.9 µg/mL)
- solubility at 24 h ([1]; 298.15 K): 75.3 ± 1.2 µM (≈ 16.1 µg/mL)
- solubility at 24 h ([1]; 303.15 K): 93.2 ± 1.7 µM (≈ 20 µg/mL)
- solubility at 24 h ([1]; 308.15 K): 113.9 ± 0.7 µM (≈ 24.4 µg/mL)
- solubility at 24 h ([1]; 310.15 K): 130 ± 3.2 µM (≈ 27.9 µg/mL)
- solubility at 24 h ([1]; 313.15 K): 145 ± 4.1 µM (≈ 31 µg/mL)
- solubility at pH 7.4 relative to reserpine (more soluble) [1, 7]: 42 fold
- solubility at pH 7.4 relative to vincamine (more soluble) [1, 7]: 44 fold
- fold-change between saturation and 5 h distribution coefficients ([2]; IPM/pH 7.4, 310.15 K): 1.36 fold
- increase of distribution from 1 to 5 h ([2]; IPM/pH 7.4, 310.15 K): 1.3 fold
- fold-change between saturation and 5 h distribution coefficients ([2]; OctOH/pH 7.4, 310.15 K): 1.38 fold
- increase of distribution from 1 to 5 h ([2]; OctOH/pH 7.4, 310.15 K): 1.2 fold
- logPapp [3]: −4.31
- steady state flux J ([3]; C0 2.11 × 10^−3 M): 1.04 × 10^−4 µmol∙cm^−2∙s^−1
- Papp at 5 h ([3]; read-out: permeability coefficient Papp): 49.3 ×10⁻⁶ cm/s
- logPapp ([4]; PDS membrane): −6.78
- steady state flux J ([4]; PDS membrane, C0 2.62 × 10^−3 M): 4.31 × 10^−7 µmol∙cm^−2∙s^−1
- Papp at 5 h ([4]; PDS membrane, read-out: permeability coefficient Papp): 0.165 ×10⁻⁶ cm/s
- permeability coefficient for PDS, fold lower than for RC [4]: 299 fold
- logPapp ([5]; PP barrier, pH 7.4, 310.15 K): −4.43
- steady state flux J ([5]; PP barrier, pH 7.4, 310.15 K, C0 2.23 × 10^−3 M): 8.28 × 10^−5 µmol∙cm^−2∙s^−1
- Papp at 5 h ([5]; PP barrier, pH 7.4, 310.15 K, read-out: permeability coefficient Papp): 37.1 ×10⁻⁶ cm/s
- permeability classification (Di Cagno et al.) ([5]; PP barrier, high permeability if Papp > 2.04∙10^−5 cm∙s^−1): highly permeable; also recorded: high permeated substance
- permeability coefficient for PP, fold lower than for RC ([5]; pH 7.4, 310.15 K): 1.3 fold
- MDCK permeability coefficient, fold lower than PermeaPad result (MDCK cells): up to 2.3 fold
- Gibbs energy of solution ΔGsol0 ([6]; Hex, 298.15 K): 6.84 kcal/mol
- enthalpy share of the total free energy change of dissolution ([6]; Hex, 298.15 K): 84%
- entropy share of the total free energy change of dissolution ([6]; Hex, 298.15 K): 16%
- Gibbs energy of solution ΔGsol0 ([6]; OctOH, 298.15 K): 2.89 kcal/mol
- Gibbs energy of solution ΔGsol0 ([6]; pH 7.4, 298.15 K): 5.66 kcal/mol
